Measurements as given in paper PMC9134315, “Systemic Administration of a Brain Permeable Cdk5 Inhibitor Alters Neurobehavior” (Frontiers in Pharmacology, 2022).

Molecular target: T1, Cdk5 (Mus musculus, UniProt P49615)
T1 construct: from tissue; host or cells: striatum of wild-type C57BL/6 mice (acute slices, or lysates after I.V. dosing)
Test: Ex vivo acute striatal brain slice pharmacology, immunoblot of phospho-Thr75 DARPP-32 and phospho-Ser1116 NR2B
Type: cell-based
Conditions: acute striatal slices, 1 h treatment, 0-10 µM; read-out: IC50, Cdk5-dependent phosphorylation of DARPP-32 and NR2B
Experimental: Brain slice pharmacology was performed as described ([Nishi et al., 2000]). Briefly, the mice were decapitated, and the brains were rapidly dissected and submerged in ice-cold normal Kreb’s solution (124 mM NaCl, 4 mM KCl, 26 mM NaHCO3, 1.25 mM KH2PO4, 1.5 mM MgSO4, 10 mM D-glucose, and 1.5 mM CaCl2). The brains were subsequently sectioned into normal Kreb’s solution at 350 µ thickness. The brain slices were transferred to a 30°C solution of normal Kreb’s containing 10 µM deaminase for a 1-h recovery period. The sections were then incubated in normal Kreb’s solution with and without the indicated compounds across the dose and time ranges indicated. The sections were rapidly snap-frozen in dry ice to terminate treatment regimes.
Immunoblotting was performed as previously described ([Umfress et al., 2021]). Mouse brains were rapidly dissected in an ice-cold solution of 50 mM NaF/PBS. The regions of interest were further dissected out and rapidly snap-frozen in dry ice. The frozen tissue was homogenized in boiling lysis buffer (1% SDS, 50 mM NaF) and sonicated with several three to four pulses at 40 dB. The samples were subsequently denatured at 90°C for 5 min. Protein concentration was determined by the BCA assay, and homogenates were diluted in 4x sample buffer, separated by SDS-PAGE, and transferred to 0.45-µm nitrocellulose membranes, blocked with 5% milk solution (1 h), and probed with primary antibodies (overnight). The following antibodies were used in the study: phospho-Ser549 synapsin I (Phosphosolutions), total synapsin I (Phosphosolutions), actin (Invitrogen), phospho-Ser1116 (in-house) ([Plattner et al., 2014]), and total NR2B (Phosphosolutions), phospho-Thr75, and total DARPP-32 (Cell Signaling Technology). Visualization was performed using the Licor CLX membrane scanner and Licor secondary antibodies.
In order to assess the functional inhibition of Cdk5 in intact brain tissue by the four compounds summarized in Figure 1, acutely prepared striatal slices were treated in a dose-dependent manner (0, 0.25, 0.5, 1, 5, and 10 µM) with each inhibitor for 1 h, and Cdk5 activity was assessed via immunoblotting the phosphorylation of established Cdk5 sites, phospho-Thr75 DARPP-32 and phospho-Ser1116 NR2B ([Bibb et al., 1999]; [Plattner et al., 2014]).

T1 sequence (P49615 whole entry): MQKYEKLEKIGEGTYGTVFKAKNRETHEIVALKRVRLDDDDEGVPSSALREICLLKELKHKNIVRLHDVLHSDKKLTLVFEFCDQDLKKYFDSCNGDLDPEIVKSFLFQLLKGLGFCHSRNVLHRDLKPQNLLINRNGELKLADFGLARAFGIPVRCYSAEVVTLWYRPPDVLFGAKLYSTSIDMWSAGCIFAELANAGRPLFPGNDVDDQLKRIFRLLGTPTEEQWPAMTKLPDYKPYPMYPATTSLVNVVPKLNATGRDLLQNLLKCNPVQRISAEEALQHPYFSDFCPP
T1 sequence (P61809 2-307 partner limits assumed): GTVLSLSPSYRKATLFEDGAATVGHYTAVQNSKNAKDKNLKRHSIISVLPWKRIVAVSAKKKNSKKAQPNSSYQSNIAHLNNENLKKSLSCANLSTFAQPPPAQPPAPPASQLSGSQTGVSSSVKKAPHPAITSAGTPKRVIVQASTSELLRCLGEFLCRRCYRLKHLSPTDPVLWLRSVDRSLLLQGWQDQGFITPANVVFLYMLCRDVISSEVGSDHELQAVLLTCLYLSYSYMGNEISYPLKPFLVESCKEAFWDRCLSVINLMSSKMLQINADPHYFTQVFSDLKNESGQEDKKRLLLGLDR

IC50: 500 to 1000 nM
Compound: COc1cc(CC(=O)Nc2cc(C3CCC3)[nH]n2)cc(OC)c1OC [25–106, N-(5-cyclobutyl-1H-pyrazol-3-yl)-2-(3,4,5-trimethoxyphenyl)acetamide]
